Experimental data from patent publication US20100113337A1, “METHOD FOR REDUCING INCIDENCE OR RATE OF DEVELOPMENT OF SKIN CANCERS AND RELATED CONDITIONS” (Clinuvel Pharmaceuticals Limited, priority 2006, published 2010).

What was measured:
[1] = system: human volunteers; conditions: cited from earlier work
[2] = system: Hairless albino Sh:HR-1 mice; assay: UVB induced skin carcinogenesis in hairless mice (tumour multiplicity); type: in vivo, mouse; conditions: one minimal erythemal dose of UVB daily for 10 weeks; tumours counted at weeks 11, 13, 14, 15, 16 and 17; versus control group
Text: Hairless mouse strains such as the HRA-Skh-1 mice are a standard mouse model used to study solar damage to human skin (Canfield et al., 1985—reference 1). Exposure of the hairless mouse to UV light mimics “sunburn” in humans. With continued irradiation treatment, this on-going damage is reflected in progressive thickening of the skin which histologically mimics hyperkeratinization and elastosis associated with photoaging and chronically sun-exposed skin in humans. Pre-malignant tumours begin to appear within several weeks of completion of the ultra violet light regimen. Over an ensuing time period there is a progressive development of pre-malignant and malignant tumours, the histology and behaviour of which closely mimic keratoses and pre-malignant and malignant skin cancers that develop in humans in response to sunlight.
Hairless albino Sh:HR-1 mice are divided into two groups each containing 20 animals. The first group receiving Nle^4-D-Phe^7-alpha-MSH, and the second group being a control group. Both groups receive one minimal erythemal dose of UVB light to stimulate the toxic effect of sunlight on the skin daily for 10 weeks. At weeks 11, 13, 14, 15, 16 and 17 the number of skin tumours on each animal is measured and calculated as tumour multiplicity, i.e. average number of tumours per mouse.

[Nle^4,D-Phe^7]-alpha-MSH [Nle^4-D-Phe^7-α-MSH]
induction of melanin synthesis [1]: can induce melanin synthesis
protection against UVB induced carcinogenesis (tumour multiplicity, average number of tumours per mouse) [2]: Protection against UVB induced carcinogenesis is observed
